Consider 61 compounds from patent publication US12583858B2 (Genentech, Inc., priority 2015, dated 2026).

For this assay, the target named is T1, TDO2 (Homo sapiens, UniProt P48775).
T1 construct: decreased levels of NFK in SW48 cells (high TDO expressing cells)
T1 sequence (P48775 whole entry): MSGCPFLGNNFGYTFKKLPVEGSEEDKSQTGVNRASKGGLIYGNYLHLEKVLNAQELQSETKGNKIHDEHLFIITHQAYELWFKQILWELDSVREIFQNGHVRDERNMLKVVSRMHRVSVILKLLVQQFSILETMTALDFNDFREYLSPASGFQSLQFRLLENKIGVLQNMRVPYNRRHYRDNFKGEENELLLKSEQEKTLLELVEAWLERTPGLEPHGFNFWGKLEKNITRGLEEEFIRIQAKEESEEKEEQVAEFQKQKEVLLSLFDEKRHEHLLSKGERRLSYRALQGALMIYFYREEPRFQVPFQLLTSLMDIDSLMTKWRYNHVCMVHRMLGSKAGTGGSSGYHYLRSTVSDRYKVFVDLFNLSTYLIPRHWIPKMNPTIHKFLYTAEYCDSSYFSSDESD
The assay can be described thus: TDO2 cell assay (NFK GreenScreen, SW48 cells). It is filed as cell-based. The settings on record: SW48 cells (high TDO expressing), 200 uM tryptophan, 24 hours; Table 3; read-out: TDO2 Cell Fluor EC50.
Procedure: The NFK GreenScreen™ (NTRC, Netherlands) uses a specific chemical probe that binds to N-Formylkynurenine (NFK), a product of tryptophan catabolism facilitated by IDO or TDO and causes fluorescence at 510 nm when excited at 410 nm. […] The assay is multiplexed with Cell Titer-Glo® (Promega) to determine if compounds are cytotoxic. […] Cells are counted on a Vi-Cell (Beckman Coulter). SW48 cells are diluted to 1×10^6 cells/ml in assay media. A172 cells are diluted to 0.24×10^6 cells/ml in assay media. […] 5 ul of assay media containing 1.2 mM tryptophan are added to the SW48 cells for a final concentration of 200 uM tryptophan in each well. 5 ul of assay media containing 600 uM tryptophan and 600 ng/ml IFNγ are added to the A172 cells for a final concentration of 100 uM tryptophan and 100 ng/ml IFNγ in each well. The final DMSO concentration is 0.5%. Cell plates are placed at room temperature in a closed TC hood with the blower off to allow cells to settle for approximately 30 min. Plates are then moved to an incubator set at 37° C., 5% CO2 for 24 hours. After the 24 hour compound incubation, 8 ul of NFK green reagent is added to each well with a Multidrop™ Combi dispenser (Thermo Scientific). Plates are sealed and incubated at 37° C., 5% CO2 for 5 hours, then read on a PHERAstar® (BMG labtech). Data are analyzed by normalizing to DMSO and high inhibitor controls. After the plates have been read for NFK green, 25 ul of Cell Titer-Glo® (Promega) are added to each well, incubated for 15 minutes at room temperature, and read on the Envision (Perkin Elmer). Cell Titer-Glo data are analyzed by normalizing to the DMSO controls. Four-parameter curve fitting is used and EC50 data are reported.
Turning to `O[C@@H]1c2cnccc2CC[C@@H]1[C@H]1c2ccccc2-c2cncn21` (single isomer, unassigned) [Example 04d], the concentration giving a half-maximal response (EC50) came out at 20 µM. In the case of `CS(=O)(=O)N1CCC(O)C(C2c3ccccc3-c3cncn32)CC1` (single isomer, unassigned) [Example 92c] it was 18 µM; in that of `Cn1ncc2c1CCC(C1c3ccccc3-c3cncn31)C2O` (single isomer, unassigned) [Example 93e], 4.3 µM; in that of `NC(=O)C1CCC(O)(C2c3ccccc3-c3cncn32)CC1` (single isomer, unassigned) [Example 140a], more than 25 µM. As for `NS(=O)(=O)N1CC[C@@H]([C@H]2c3ccccc3-c3cncn32)[C@H](O)C1` (single isomer, unassigned) [Example 39b], the EC50 is 3.7 µM. In the case of `Cn1cc2c(n1)C(O)C(C1c3ccccc3-c3cncn31)CC2` (single isomer, unassigned) [Example 139-1b] it was more than 25 µM; in that of `CS(=O)(=O)N1CCC(C2c3ccccc3-c3cncn32)C(O)C1` [Example 64c, (3R,4R)-4-((R)-5H-imidazo[5,1-a]isoindol-5-yl)-1-(methylsulfonyl)piperidin-3-ol], more than 25 µM; in that of `O[C@H]1c2ccnn2CC[C@H]1[C@H]1c2ccccc2-c2cncn21` [Example 56e, (4R,5S)-5-((S)-5H-imidazo[5,1-a]isoindol-5-yl)-4,5,6,7-tetrahydropyrazolo[1,5-a]pyridin-4-ol], 0.76 µM. As to `NC(=O)c1ccc2c(c1)CCC(C1c3ccccc3-c3cncn31)C2O` (single isomer, unassigned) [Example 60a], the EC50 turned out to be 0.48 µM.

With `OC1c2cnccc2CC1C1c2ccccc2-c2cncn21` (single isomer, unassigned) [Example 71a], the EC50 was 17 µM. In the case of `OC1C(C2c3ccc(F)cc3-c3cncn32)CC12CCOCC2` (single isomer, unassigned) [Example 109a] it was 0.62 µM.

Take `OC1(C2c3ccccc3-c3cncn32)CCC1` (single isomer, unassigned) [Example 47b]: the half-maximal effective concentration (EC50) is more than 25 µM. The same measure for `OC1c2ccnn2CCC1C1c2ccccc2-c2cncn21` (single isomer, unassigned) [Example 56f]: 3.8 µM; for `OC1c2nccn2CCC1C1c2ccccc2-c2cncn21` (single isomer, unassigned) [Example 88b]: more than 25 µM; for `NS(=O)(=O)c1ccc2c(c1)C(O)C(C1c3ccccc3-c3cncn31)CC2` (single isomer, unassigned) [Example 105h]: 0.51 µM. The same measure for `OC1CCCC1C1c2ccccc2-c2cncn21` (single isomer, unassigned) [Example 02f]: 0.07 µM. In the case of `Nc1ncc2c(n1)CCC(C1c3ccccc3-c3cncn31)C2O` (single isomer, unassigned) [Example 111f] it was more than 25 µM; in that of `N#CC1CCC(O)(C2c3ccccc3-c3cncn32)CC1` (single isomer, unassigned) [Example 145d], more than 25 µM; in that of `OC1C(C2c3ccccc3-c3cncn32)CCC12CCOCC2` (single isomer, unassigned) [Example 68c], more than 25 µM. As for `OC1CCCCC1C1c2ccccc2-c2cncn21` (single isomer, unassigned) [Example 03e], the concentration giving a half-maximal response (EC50) worked out at 16 µM. In the case of `CC(O)(c1ncc[nH]1)C1c2ccccc2-c2cncn21` (single isomer, unassigned) [Example 143a] it was more than 25 µM; in that of `N[C@H]1COC[C@H]1[C@H]1c2ccccc2-c2cncn21` [Example 32b, (3R,4R)-4-[(5S)-5H-imidazo[4,3-a]isoindol-5-yl]oxolan-3-amine], 11 µM. In the case of `OC1c2ccnn2CCCC1C1c2ccccc2-c2cncn21` (single isomer, unassigned) [Example 133a] it was more than 25 µM; in that of `Cn1cc2c(n1)CCC(C1c3ccccc3-c3cncn31)C2O` (single isomer, unassigned) [Example 130g], 4.5 µM. In the case of `OC1CCCCC1C1c2ccc(F)cc2-c2cncn21` (single isomer, unassigned) [Example 25a] it was 0.51 µM. As to `OC1CC(CF)(CF)C1C1c2ccccc2-c2cncn21` (single isomer, unassigned) [Example 150d], the concentration for a half-maximal effect (EC50) came out at 18 µM.

As for `OC1C(C2c3ccccc3-c3cncn32)CC12CCOCC2` (single isomer, unassigned) [Example 57e], the concentration giving a half-maximal response (EC50) amounted to 0.077 µM. For the compound `CC1(C)COCC(C2c3ccccc3-c3cncn32)C1O` (single isomer, unassigned) [Example 66f], the EC50 was 0.16 µM.

For the compound `Nc1ncc2c(n1)CCC(C1c3ccccc3-c3cncn31)C2O` (single isomer, unassigned) [Example 111b], the EC50 is 0.12 µM. On to `OC1c2nncn2CCC1C1c2ccccc2-c2cncn21` (single isomer, unassigned) [Example 146-1b], for which the EC50 is 7.4 µM. For `CC(O)(c1ncc[nH]1)C1c2ccccc2-c2cncn21` (single isomer, unassigned) [Example 143b], the half-maximal effective concentration (EC50) is more than 25 µM.

Consider `O[C@H]1CN(CC(F)(F)F)CC[C@@H]1[C@H]1c2ccccc2-c2cncn21` [Example 82a, (3R,4R)-4-((S)-5H-imidazo[5,1-a]isoindol-5-yl)-1-(2,2,2-trifluoroethyl)piperidin-3-ol], for which the EC50 came out at 4.4 µM. As to `NC(=O)c1ccc2c(c1)C(O)C(C1c3ccccc3-c3cncn31)CC2` (single isomer, unassigned) [Example 122f], the EC50 stood at 0.91 µM.

In the case of `CC(C)C(O)C1c2ccc(F)cc2-c2cncn21` (single isomer, unassigned) [Example 135d], the EC50 amounted to 0.13 µM. `OC1(C2c3ccccc3-c3cncn32)CCCOC1` (single isomer, unassigned) [Example 144d]: the EC50 is more than 25 µM.

For the compound `NS(=O)(=O)N1CCC2(CC1)CC(C1c3ccccc3-c3cncn31)C2O` (single isomer, unassigned) [Example 181a], the EC50 is 0.66 µM. The same measure for `Cc1cnn2c1C(O)C(C1c3ccccc3-c3cncn31)CC2` (single isomer, unassigned) [Example 159c]: 0.25 µM; for `CN(C)S(=O)(=O)N1CC[C@H]([C@H]2c3ccccc3-c3cncn32)[C@@H](O)C1` [Example 78a]: 4.5 µM; for `NS(=O)(=O)c1ccc2c(c1)CCC(C1c3ccccc3-c3cncn31)C2O` (single isomer, unassigned) [Example 100h]: 4.8 µM.

On to `CC(=O)N1CCC(C2c3ccccc3-c3cncn32)C(O)C1` (single isomer, unassigned) [Example 09b, 1-(3-hydroxy-4-(5H-imidazo[5,1-a]isoindol-5-yl)piperidin-1-yl)ethan-1-one], for which the half-maximal effective concentration (EC50) amounted to 3 µM.

Regarding `CN(C)C(=O)c1ccc2c(c1)CCC(C1c3ccccc3-c3cncn31)C2O` (single isomer, unassigned) [Example 98f], the EC50 is 2.5 µM.

`N#Cc1cnc2c(c1)CC[C@H]([C@@H]1c3ccccc3-c3cncn31)[C@H]2O` (single isomer, unassigned) [Example 107h]: the EC50 came to 0.16 µM. The same measure for `OC1c2c(F)cnn2CCC1C1c2ccccc2-c2cncn21` (single isomer, unassigned) [Example 151c]: more than 25 µM; for `OC1CCCCC1C1c2ccccc2-c2cncn21` (single isomer, unassigned) [Example 03d]: 0.036 µM; for `CC(C)C(O)C1c2ccccc2-c2cncn21` (single isomer, unassigned) [Example 51b]: more than 25 µM. As to `OC1C(C2c3ccccc3-c3cncn32)CC12CCOCC2` (single isomer, unassigned) [Example 57d], the EC50 is more than 25 µM. Regarding `NS(=O)(=O)c1ccc2c(c1)CCC(C1c3ccccc3-c3cncn31)C2O` (single isomer, unassigned) [Example 100f], the concentration for a half-maximal effect (EC50) came to 15 µM. As to `OC1COCCC1C1c2c(Cl)cccc2-c2cncn21` (single isomer, unassigned) [Example 69-1b], the 50% effective concentration (EC50) is more than 25 µM.

For `NS(=O)(=O)c1ccc2c(c1)C(O)C(C1c3ccccc3-c3cncn31)CC2` (single isomer, unassigned) [Example 105f], the EC50 was found to be 16 µM. With `OC1c2cnccc2CC1C1c2ccccc2-c2cncn21` (single isomer, unassigned) [Example 71b], the half-maximal effective concentration (EC50) came to 0.63 µM. In the case of `O=S(=O)(C1CC1)N1CC[C@@H](O)[C@H]([C@H]2c3ccccc3-c3cncn32)C1` (single isomer, unassigned) [Example 70a] it was more than 25 µM. In the case of `OC1c2cnnn2CCC1C1c2ccccc2-c2cncn21` (single isomer, unassigned) [Example 146b] it was more than 25 µM. In the case of `OC1c2cnccc2CCC1C1c2ccccc2-c2cncn21` (single isomer, unassigned) [Example 04b] it was more than 25 µM; in that of `NC(=O)c1cc2n(n1)CCC(C1c3ccccc3-c3cncn31)C2O` (single isomer, unassigned) [Example 172a], more than 25 µM.

As for `CC1(C)CCCC(C2c3ccccc3-c3cncn32)C1O` (single isomer, unassigned) [Example 24b], the EC50 was 8.7 µM. `O=S1(=O)CC(O)C(C2c3ccccc3-c3cncn32)C1` (single isomer, unassigned) [Example 38b]: the EC50 was determined as 0.15 µM. Turning to `OC1c2ccccc2CC1C1c2ccccc2-c2cncn21` (single isomer, unassigned) [Example 19c], the half-maximal effective concentration (EC50) was determined as 0.18 µM. In the case of `OC1c2ccnn2CCCC1C1c2ccccc2-c2cncn21` (single isomer, unassigned) [Example 133c] it was 6 µM; in that of `OC1COCCC1C1c2ccc(F)cc2-c2cncn21` (single isomer, unassigned) [Example 33c], 3.5 µM; in that of `OC1C(C2c3ccc(F)cc3-c3cncn32)CC12CCOCC2` (single isomer, unassigned) [Example 109e], 9.5 µM. The same measure for `Nc1ncc2c(n1)CCC(C1c3ccccc3-c3cncn31)C2O` (single isomer, unassigned) [Example 111c]: 7.8 µM.

For orientation: EC50 means the concentration that produces a half-maximal response.
